Experiments:
[1] = Brightness and photophysics of Mango fluorophore complexes; format: physicochemical
Source text: FIG. 2|RNA Mango I, II, III and IV core sequences and their properties. (a) Color coded alignment of RNA Mango I, II, III and IV. G residues in yellow are protected from DMS cleavage (data from panel d) when folded in the presence of fluorophore. Quadruplex stacks and their associated propeller sequences are numbered 1 through 4. The GAAA isolation motif of Mango I, together with two adenines essential for binding, are shown in green and red respectively. Purple shading represents a flanking stem region common for all four Mango aptamers. Schematic: A tertiary structure schematic of Mango I, showing tier 1, 2 and 3 of its quadruplex structure (T1, T2 and T3) and color-coded as in (a). […] Bottom: Top view of the Mango I core (PBD ID: 5V3F), showing the T3 tier of the quadruplex and relevant propeller residues, color coding matches the schematic and panel a. […] KD values are shown next to each titration. (c) Same as for panel b but using 20 nM TO3-Biotin. Data for panels b and c have been normalized such that Mango I has a maximum fluorescence of 1. Error bars are standard deviation of three replicates. (d) DMS chemical protection patterns for the four Mango aptamers. 3′ end-labelled RNA (terminal ^32pCp shown as a black asterisk) was subjected to DMS chemical modification followed by reduction by NaBH4 and aniline cleavage as described in the methods. […] Legend: T1—denatured T1 ladder; OH—partial alkaline hydrolysis ladder; (−) DMS—denatured reaction with ddH2O added in place of DMS; 80° C.
FIG. 13|Photophysics: excitation/emission. (a) Excitation (dark curve) and emission (light curve) spectra of each Mango. All Mangos have Δex max=510 nm and Δem max=535 nm. Color-coding is as follows: Black—Mango I, Blue—Mango II, Green—Mango III, Red—Mango IV.
Fluorescence data was gathered using a Varian Cary Eclipse Spectrophotometer unless otherwise stated. […] Fluorescence was measured at the maximum excitation and emission wavelengths of each complex (FIG. 13).

[2] = Salt dependence of Mango/TO1-Biotin fluorescence: Mg2+ titration; details: in the presence of potassium; Mg2+ 256 mM
Protocol: (§1) FIG. 10|Salt dependence of new Mango variants. Dependence of fluorescence of each Mango for (a) K^+, (b) Na^+ in place of K^+, and (c) Mg^2+ ions in a buffer containing 140 mM K^+. […] 10 mM Tris buffer (pH 7.2) was used in place of phosphate of the WB buffer to avoid monovalent counter ions. Color-coding is as follows: Black—Mango I, Blue—Mango II, Green—Mango III, Orange—Mango IV. Hill coefficients are fitted to dark points. Points in lighter shade have been excluded from the fit. Error bars are standard deviations of three replicates.

[3] = Salt dependence of Mango/TO1-Biotin fluorescence: Na+ in place of K+; format: binding
Protocol: as §1

Mango-II: minimal construct engineered from isolate R2-1; SEQ ID NO: 6902 GCGUACGAAGGAGAGGAGAGGAAGAGGAGAGUACGC (chemistry not given here)
quantum yield of the TO1-Biotin complex [1]: 0.21
brightness of the TO1-Biotin bound complex ([1]; TO1-Biotin complex): 17,000 M^−1cm^−1
brighter than Mango-I ([1]; TO1-Biotin, FIG. 2b): 1.5 fold
effect of high levels of Mg^2+ on fluorescence [2]: significantly resistant
fluorescence in the presence of sodium ions [3]: did not fluoresce appreciably
Hill Coefficients Na^+ ([3]; Na+ in place of K+, 25 nM RNA, 50 nM TO1-Biotin): 0.8 ± 0.1
